Values after ≈ are worked out from the molar mass of the structure shown. Like-named read-outs stand apart in the source and are kept apart here.
Assays:
HRV2 [1] = test: Antiviral activity, SRB method using CPE reduction, HRV2-infected HeLa cells; assay type: cell-based, human rhinovirus; settings: for IC50: Human rhinovirus sp., HRV2, HeLa, HRV2 in HeLa cells, mean ± S.D., read-out: IC50, concentration required to inhibit virus-induced cytopathic effect (CPE) by 50%; for TI, therapeutic index = CC50/IC50: HRV2; for antiviral activity against HRV2 (in words): HeLa cells
Procedure: (§1) HRV 2 and 3 were provided by the ATCC (American Type Culture Collection, Manassas, VA, USA) and were propagated in human epitheloid carcinoma cervix (HeLa) cells at 32 °C. HeLa cells were maintained in minimal essential medium (MEM) supplemented with 10% fetal bovine serum (FBS) and 0.01% antibiotic-antimycotic.
(§2) Assays of antiviral activity and cytotoxicity were evaluated by the SRB method using CPE reduction, recently reported. […] Next day, medium was removed and then washed with 1× phosphate buffered saline (PBS). Infectivity of virus stock was determined by the SRB method using cytopathic effect (CPE) reduction and was determined as infectivity of the virus by SRB ID50 (50% infective dose). […] The antiviral activity of each test material was determined with a 10-fold diluted concentration ranging from 0.1 to 100 μg/mL. Three wells were used as virus controls (virus-infected non-drug-treated cells) while three wells were used as cell controls (non-infected non-drug-treated cells). The culture plates were incubated at 37 °C in 5% CO2 for 2 days. After washing 1 times with 1× PBS, 100 μL of cold (−20 °C) 70% acetone were added to each well and left for 30 min at −20 °C. 70% acetone was removed and 96-well plates were left at dry oven for 30 min. 100 μL of 0.4% (w/v) SRB in 1% acetic acid solution were added to each well and left at room temperature for 30 min. Unbound SRB was removed and the plates were washed 5 times with 1% acetic acid before oven drying and were then left in a dry oven for 1 day. Bound SRB was solubilized with 100 μL of 10 mM unbuffered tris-base solution and plates were left on a table for 30 min. The absorbance was read at 540 nm by using a VERSAmax microplate reader (Molecular Devices, Palo Alto, CA, USA) with a reference absorbance at 620 nm. To calculate the IC50 values, the results were transformed to percentage of controls and the IC50 values were graphically obtained from the dose-response curves. The percent protection achieved by the test compound in HRV2 or HRV3-infected cells was calculated by the following formula: […]
(§3) where (ODt)virus is the optical density measured with a given concentration of the test compound in virus-infected cells; (ODc)virus is the optical density measured for the control untreated virus-infected cells; and (ODc)mock is the optical density measured for control untreated mock-infected cells. The concentration achieving 50% protection according to the formula above was defined as the 50% inhibitory concentration (IC50). The therapeutic index was defined as CC50/IC50. […] Next day, medium was removed and the 96-well plates were replaced with media containing the serially diluted compounds and the cells were further incubated for 48 h. The culture medium was removed and washed with 1× PBS. The next step was conducted by antiviral activity assay above described. To calculate the CC50 values, the results were transformed to percentage of controls and the CC50 values were graphically obtained from the dose-response curves. Ribavirin was used as positive, and dimethyl sulfoxide (DMSO) was used as negative control.

HRV3 [2] = test: Antiviral activity, SRB method using CPE reduction, HRV3-infected HeLa cells; assay type: cell-based, human rhinovirus; settings: for antiviral activity against HRV3 (in words): HeLa cells; for IC50: Human rhinovirus sp., HRV3, HeLa, HRV3 in HeLa cells, mean ± S.D., ND = maximum inhibition rate under 50%, read-out: IC50, concentration required to inhibit virus-induced cytopathic effect (CPE) by 50%
Procedure: as §1, §2, §3

HRV2 [3] = test: Microscopic observation of HRV2-induced CPE in HeLa cells; assay type: cell-based, human rhinovirus; settings: HRV2-infected HeLa cells, 20 μg/mL, 32 °C, 2 days
Procedure: (§4) After a 2-day infection of HeLa cells with HRV2 and HRV3, the effect of compound 1 and compound 3 on HRV-induced cytopathic effect (CPE) investigated.
(§5) Figure 3 The effect of compound 1 or compound 3 on HRV2 (left group; I) and HRV 3 (right group; II)-induced CPE. The virus-infected cells were treated with compound 1 or compound 3 of 20 μg/mL. After incubation at 32 °C in 5% of CO2 for 2 days, the cell morphology was photographed under a microscope.
(§6) Briefly, HeLa cells were seeded onto a 96-well culture plate at a concentration of 2 × 10^4 cells per well. The next day, the medium was removed and washed with PBS. Then, 0.09 mL of diluted virus suspension and 0.01 mL of medium supplemented with 20 mM MgCl2 containing compound 1 or compound 3 of 20 μg/mL were added. After incubation at 32 °C in 5% CO2 for 2 days, the morphology of cells was observed under microscope of 32 × 10 magnifications (St Ernst-Leitz, Wetzlar, Germany), and images were recorded.

[4] = Cytotoxicity, SRB method, non-infected HeLa cells, 48 h; assay type: cell-based, human; settings: human, non-infected HeLa cells, Table 4, read-out: CC50, concentration required to reduce cell growth by 50%
Procedure: as §2, §3

HRV3 [5] = test: Microscopic observation of HRV3-induced CPE in HeLa cells; assay type: cell-based, human rhinovirus; settings: HRV3-infected HeLa cells, 20 μg/mL, 32 °C, 2 days
Procedure: as §4, §5, §6

HeLa cells = test: Cytotoxicity, SRB method, non-infected HeLa cells, 48 h; assay type: cell-based, human; settings: Table 2, column under HRV3
Procedure: as §2, §3

IC50 (HRV2 [1]; Table 4)	Structure (SMILES)	antiviral activity against HRV3 (in words) (HRV3 [2])	effect on HRV2-induced visible CPE (HRV2 [3])	CC50 at 48 h [4]	antiviral activity against HRV2 (in words) (HRV2 [1])	also measured
2.5 ± 0.66 µg/mL (≈ 8.39 µM)	OCc1cc(O)c(O)c(Br)c1Br [Compound 1, 2,3-Dibromo-4,5-dihydroxybenzyl alcohol]	did not show anti-HRV3 activity	inhibited the formation of a visible CPE	> 20 µg/mL	–	TI, therapeutic index = CC50/IC50 (HRV2 [1]; Table 4): 8.00
–	O=Cc1cc(O)c(O)c(Br)c1Br [Compound 2, 2,3-Dibromo-4,5-dihydroxybenzaldehyde]	no antiviral effect	–	–	no antiviral effect	–
7.11 ± 0.64 µg/mL (≈ 13.9 µM)	COCc1cc(O)c(O)c(Br)c1Cc1cc(O)c(O)c(Br)c1Br [Compound 3, 2,2′,3-Tribromo-3′,4,4′,5-tetrahydroxy-6′-methoxymethyldiphenylmethane]	–	inhibited the formation of a visible CPE	> 20 µg/mL	–	TI, therapeutic index = CC50/IC50 (HRV2 [1]; Table 4): 2.81; effect on HRV3-induced visible CPE (HRV3 [5]): inhibited the formation of a visible CPE; IC50 (HRV3 [2]; Table 4): 4.69 ± 0.44 µg/mL (≈ 9.14 µM); TI, therapeutic index = CC50/IC50 (HRV3 [2]; Table 4, HRV3): 4.26
–	COCc1cc(O)c(O)c(Br)c1Br [Compound 4, 2,3-Dibromo-4,5-dihydroxybenzyl methyl ether]	no antiviral effect	–	–	no antiviral effect	–
–	COCc1cc(Br)c(O)c(O)c1Br [Compound 5, 2,5-Dibromo-3,4-dihydroxy-benzyl methyl ether]	no antiviral effect	–	–	no antiviral effect	–
–	Oc1cc(Cc2cc(O)c(O)c(Br)c2Br)c(Br)c(Br)c1O [Compound 6, 2,2′,3,3′-Tetrabromo-4,4′,5,5′-tetrahydroxydiphenylmethane]	no antiviral effect	–	–	no antiviral effect	–
2.15 ± 0.51 µg/mL (≈ 8.8 µM)	NC(=O)c1ncn([C@@H]2O[C@H](CO)[C@@H](O)[C@H]2O)n1 [Ribavirin, reference compound]	–	prevented a CPE	> 20 µg/mL	–	IC50 (HRV2 [1]; Table 2, ND = maximum inhibition rate under 50%): 17.1 ± 1.48 µg/mL (≈ 70.2 µM); effect on HRV3-induced visible CPE (HRV3 [5]): prevented a CPE; IC50 (HRV3 [2]; Table 2): 14.2 ± 2.2 µg/mL (≈ 58.4 µM); IC50 (HRV3 [2]; Table 4): 5.09 ± 0.6 µg/mL (≈ 20.8 µM); CC50, concentration required to reduce cell growth by 50% (HeLa cells): >20 µg/mL
